# Experimental data reported in US6875757B2, “LPA receptor agonists and antagonists and methods of use” (University of Tennessee Research Foundation, priority 2000, dated 2005).
# Counter-ions that a name gives are not always drawn. Like-named read-outs stand apart in the source and are kept apart here.
# What was measured:
# human Edg-2 = target: T1, human Edg-2 (Homo sapiens, UniProt Q92633); assay: Ca2+ responses (Fura-2) in RH7777 cells expressing Edg-2; assay type: cell-based
# T1 construct: expressed in transfected cells
# T1 sequence (Q92633 whole entry): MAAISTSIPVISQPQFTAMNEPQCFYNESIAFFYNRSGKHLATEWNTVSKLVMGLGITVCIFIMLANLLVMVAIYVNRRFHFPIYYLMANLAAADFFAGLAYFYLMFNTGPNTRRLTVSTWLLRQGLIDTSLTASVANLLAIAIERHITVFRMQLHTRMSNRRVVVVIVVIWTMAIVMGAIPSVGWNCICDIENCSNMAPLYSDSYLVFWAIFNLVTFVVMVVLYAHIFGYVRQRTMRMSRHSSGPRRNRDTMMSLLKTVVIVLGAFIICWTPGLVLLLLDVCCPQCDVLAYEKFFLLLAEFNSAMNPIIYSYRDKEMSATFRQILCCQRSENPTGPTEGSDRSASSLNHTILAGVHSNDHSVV
# Description: (§1) RH7777 cells were transfected with the cDNA constructs encoding human Edg-2, Edg-4, or Edg-7 and then were subcloned into the pCDNA3 expression vector using the Cytofectene transfection reagent according to the manufacturers' protocol. Transfected cells were selected in DMEM containing 10% FBS and 1 mg/ml geneticin. Resistant cells were collected and subcloned by limiting dilution. The resulting clones were then screened using functional assays and RT-PCR analysis. Data are representative of three individual clones.
# human Edg-4 = target: T2, human Edg-4 (Homo sapiens, UniProt Q9HBW0); assay: Ca2+ responses (Fura-2) in RH7777 cells expressing Edg-4 (stable or transient); assay type: cell-based
# T2 construct: expressed in transfected cells
# T2 sequence (Q9HBW0 whole entry): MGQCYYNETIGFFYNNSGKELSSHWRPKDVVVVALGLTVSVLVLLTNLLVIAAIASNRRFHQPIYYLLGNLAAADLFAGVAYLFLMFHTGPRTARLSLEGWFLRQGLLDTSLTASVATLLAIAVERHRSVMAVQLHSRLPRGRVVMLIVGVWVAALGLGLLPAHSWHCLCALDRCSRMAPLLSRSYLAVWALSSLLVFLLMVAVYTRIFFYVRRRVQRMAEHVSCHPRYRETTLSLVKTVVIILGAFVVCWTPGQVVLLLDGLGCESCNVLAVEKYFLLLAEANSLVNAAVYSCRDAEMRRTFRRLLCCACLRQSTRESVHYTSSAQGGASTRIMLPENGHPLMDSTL
# Excerpt: RH7777 cells, stably expressing human Edg-4, were kindly provided by Dr. Kevin Lynch (University of Virginia, Charlottesville, Va.). Flag-tagged cDNA's encoding human Edg-4 and -7 inserted into the pCDNA3 expression plasmid (Invitrogen, Carlsbad, Calif.), were a generous gift from Dr. Junken Aoki (University of Tokyo, Tokyo, Japan). RH7777 and NIH3T3 cells were obtained from the American Type Culture Collection (Manassas, Va.). HEY cells were provided by Dr. Lisa Jennings (University of Tennessee, Memphis). All cell lines were maintained in Dulbecco's Modified Eagle's Medium (DMEM) containing 10% FBS and 2 mM glutamine. Oocytes were obtained from adult Xenopus laevis frogs as previously described (Tigyi et al., 1999).
# as §1
# RH7777 cells were plated on polylysine-coated glass coverslips (Bellco, Vineland, N.J.) one day prior to transfection. The following day, cells were transfected overnight (16-18 hr) with 1 μg of plasmid DNA mixed with 6 μl of Cytofectene. The cells were then rinsed twice with DMEM and cultured in DMEM containing 10% FBS. The next day, the cells were rinsed with DMEM and serum was withdrawn for a minimum of 2 hr prior to monitoring intracellular Ca^2+.
# human Edg-7 = target: T3, human Edg-7 (Homo sapiens, UniProt Q9UBY5); assay: Ca2+ responses (Fura-2) in RH7777 cells expressing Edg-7; assay type: cell-based; details: for effect on LPA-elicited Ca2+ responses: 250 nM LPA 18:1 mixed with 500 nM lipid
# T3 construct: Flag; expressed in transfected cells
# T3 sequence (Q9UBY5 1-353): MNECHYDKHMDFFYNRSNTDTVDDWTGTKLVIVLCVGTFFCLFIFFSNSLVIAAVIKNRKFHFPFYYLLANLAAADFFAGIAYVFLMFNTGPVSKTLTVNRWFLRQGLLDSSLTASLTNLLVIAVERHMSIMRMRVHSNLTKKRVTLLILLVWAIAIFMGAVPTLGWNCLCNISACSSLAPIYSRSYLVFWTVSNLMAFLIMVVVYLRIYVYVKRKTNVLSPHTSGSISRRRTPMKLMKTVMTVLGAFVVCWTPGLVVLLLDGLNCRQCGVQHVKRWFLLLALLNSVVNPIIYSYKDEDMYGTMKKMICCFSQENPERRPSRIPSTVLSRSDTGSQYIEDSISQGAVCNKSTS
# Description: as §1
# PSP24 PLGFR = PSP24 PLGFR (Xenopus laevis, UniProt P79945); assay: Xenopus oocyte assay: LPA-induced oscillatory chloride currents (two-electrode voltage clamp); assay type: cell-based; details: for threshold to elicit a response alone: compound alone, agonist response; for inhibition of LPA-induced chloride currents: Xenopus oocytes, extracellular application; for reversibility of inhibition of LPA-induced chloride currents: after washing the oocyte
# Sequence of PSP24 PLGFR (P79945 whole entry): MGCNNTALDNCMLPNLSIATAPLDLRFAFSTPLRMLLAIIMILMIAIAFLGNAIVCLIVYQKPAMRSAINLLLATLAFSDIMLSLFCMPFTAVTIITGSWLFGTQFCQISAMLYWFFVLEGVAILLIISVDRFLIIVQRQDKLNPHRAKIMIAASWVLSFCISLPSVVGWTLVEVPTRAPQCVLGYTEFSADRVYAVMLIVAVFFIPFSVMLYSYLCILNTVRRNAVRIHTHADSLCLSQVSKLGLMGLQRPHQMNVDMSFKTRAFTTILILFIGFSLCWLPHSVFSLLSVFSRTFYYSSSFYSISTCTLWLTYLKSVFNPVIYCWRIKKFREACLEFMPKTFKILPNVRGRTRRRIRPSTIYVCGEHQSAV
# Description: Xenopus oocytes which endogenously express PSP24 PLGFR were used to screen the newly designed and synthesized compounds for their LPA inhibitory activity.
# (§2) Oocytes were obtained from xylazine-anesthetized adult Xenopus laevis frogs (Carolina Scientific, Burlington, N.C.) under aseptic conditions and prepared for experiment. […] Oocytes were kept in Barth's solution in an incubator between 17-20° C. and were used for 2-7 days after isolation.
# Electrophysiological recordings were carried out using a standard two-electrode voltage-clamp amplifier holding the membrane potential at −60 mV (GeneClamp 500, Axon Instruments, Calif.). […] Membrane currents were recorded with a NIC-310 digital oscilloscope (Nicolet, Madison, Wis.). Applications were made at intervals of 15 mins (minimum) to allow for the appropriate washout and recovery from desensitization.
# as §2
# Electrophysiological recordings were carried out using a standard two-electrode voltage-clamp amplifier holding the membrane potential at −60 mV (GeneClamp 500, Axon Instruments, CA). […] Membrane currents were recorded with a NIC-310 digital oscilloscope (Nicolet, Madison, Wis.). Applications were made at intervals of 15 mins (minimum) to allow for the appropriate washout and recovery from desensitization.
# [1] = tested on: LNCaP prostate cancer cell line; assay: Cytotoxicity / growth inhibition (SRB), LNCaP; assay type: cell-based; details: 96 hours drug exposure, read-out: IC50 ± SEM, LNCaP
# Description: (§3) Cells were removed from stock flasks using trypsin, centrifuged, resuspended in fresh media, and plated at a density of approximately 2,000 cells/well in 96-well culture plates. Final drug concentrations ranged from 0.05 to either 10 or 50 μM. Control experiments with no drug added (negative control) and 5-fluorouracil added (positive control) were performed in parallel. Media was removed and replaced at 48 hours to minimize the effects of drug degradation during the course of the experiment. After 96 hours drug exposure, cells were fixed by the addition of cold 50% trichloroacetic acid (TCA) and incubation at 4° C. for 1 hour. Fixed cells were stained with sulforhodamine B (SRB), and cell number was determined by comparison of absorbance at 540 nm, as compared to a standard curve of cell number versus absorbance. Experiments were performed in duplicate.
# [2] = tested on: DU-145 prostate cancer cell line; assay: Cytotoxicity / growth inhibition (SRB), DU145; assay type: cell-based; details: read-out: IC50 ± SEM, DU145
# Description: as §3
# [3] = tested on: PC-3 prostate cancer cell line; assay: Cytotoxicity / growth inhibition (SRB), PC-3; assay type: cell-based; details: 96 hours drug exposure, read-out: IC50 ± SEM, PC-3
# Description: as §3
# [4] = LPA 18:1 near the EC50 combined with compound 108
# [5] = 250 nM LPA 18:1 mixed with 10 μM lipid
# [6] = Homo sapiens, DU-145, 96 hours drug exposure
# [7] = alone, concentrations as high as 10 μM
# [8] = mixture of LPA 8:0 and LPA 18:1
compound,measurement,setting,value
"CCCCCCCCCCCCOP(=O)(O)O [Compound 108, Phosphoric Acid Monododecyl Ester]","Ca2+ responses, % of control",human Edg-2; [4],about 63 % of control
same,"Ca2+ responses, % of control",human Edg-4; [4],about 148 % of control
same,"Ca2+ responses, % of control",human Edg-7; [4],~56 % of control
"CCCCCCCCCCCCCC(=O)OCC(COP(=O)(O)O)OP(=O)(O)O (stereo not shown) [Compound 85, 1,2-(3-Tetradecanoyloxypropane)-bis(dihydrogen phosphate)]",threshold to elicit a response alone,PSP24 PLGFR,~100 nM
same,IC50,[1],11.6 ± 10.3 µM
"CCCCCCCCCCCCCCOc1ccc(NC(=O)C(N)CO)cc1 (stereo not shown) [Compound 38, N-1-[4-(tetradecyloxy)phenyl]-2-amino-3-hydroxypropanamide trifluoroacetate]",IC50,[2]; 96 hours drug exposure,38.9 ± 8.9 µM
"CCCCCCCCCCCCCCCCCCCC(=O)OCC(COP(=O)(O)O)OP(=O)(O)O (stereo not shown) [Compound 91, 1,2-(3-Icosanoyloxypropane)-bis(dihydrogen phosphate)]",IC50,[2]; 96 hours drug exposure,42.2 ± 1.9 µM
lysophosphatidic acid [LPA (18:1)],EC50,"human Edg-2; stable Edg-2 expressing cells, read-out: EC50, Ca2+ transients",0.378 ± 0.053 µM
same,EC50,"PSP24 PLGFR; LPA alone, FIG. 37, read-out: EC50 of LPA alone (positive control solution)",0.025 µM
same,IC50,[3],28.5 ± 6.3 µM
"CCCCCCCCCCCCCCCCCC(=O)OCC(COP(=O)(O)O)OP(=O)(O)O (stereo not shown) [Compound 89, 1,2-(3-Octadecanoyloxypropane)-bis(dihydrogen phosphate)]",inhibition of LPA-induced response,"PSP24 PLGFR; against 2 nM LPA, compound concentration not given",59%
diacyl glycerol [DAG 8:0],"Ca2+ response, % of control",human Edg-2; [5],64 % of control
same,effect on LPA-elicited Ca2+ responses,human Edg-7,significantly increased the Ca^2+ responses
"CCCCCCCCCCCCCCNC(=O)C(CO)NC(=O)OC(C)(C)C (stereo not shown) [Compound 27, tert-Butyl N-[1-(hydroxymethyl)-2-oxo-2-(tetradecylamino)ethyl]carbamate]",IC50,[3],> 50 µM
same,IC50,[2]; [6],19.7 ± 6 µM
same,IC50,"[1]; Homo sapiens, LNCaP",10.9 ± 2.7 µM
same,melting point,,59 to 62 °C
"CCCCCCCCCCCCOCC(COP(=O)(O)O)OP(=O)(O)O (stereo not shown) [Compound 67, 1,2-(3-Dodecyloxypropane)-bis(dihydrogen phosphate)]",threshold to elicit a response alone,PSP24 PLGFR,~1000 nM
same,IC50,[1],25.2 ± 12.3 µM
"CCCCCCCCCCCCC/C=C/[C@@H](O)[C@@H](N)COP(=O)(O)O [SPP (13:0), sphingosine-1-phosphate]",IC50,[3],> 50 µM
same,IC50,[2]; [6],> 10 µM
CCCCCCCCCCCCCCCCCCNC(=O)C(N)CO.O=C(O)C(F)(F)F (stereo not shown),melting point,,170 to 172 °C
"O=c1[nH]cc(F)c(=O)[nH]1 [Fluorouracil, 5-fluorouracil]",IC50,[3],10.2 ± 4.1 µM
same,IC50,[2]; [6],6.8 ± 3.3 µM
same,IC50,"[1]; Homo sapiens, LNCaP",2.8 ± 1.6 µM
diacyl glycerol [DAG 18:1],inhibitory effect on LPA-elicited Ca2+ response,human Edg-2; [5],no longer had an inhibitory effect
same,effect on LPA-elicited Ca2+ responses,human Edg-7,did not have an inhibitory effect
"CCCCCCCCCCCCCCNC(=O)C(N)CO.O=C(O)C(F)(F)F (stereo not shown) [Compound 36, N-1-tetradecyl-2-amino-3-hydroxypropanamide trifluoroacetate]",inhibition of LPA-induced chloride currents,PSP24 PLGFR,best inhibitor among the non-phosphorylated derivatives
same,melting point,,168 to 171 °C
"CCCCCCCCCCCCCCCCCCC(=O)OCC(COP(=O)(O)O)OP(=O)(O)O (stereo not shown) [Compound 90, 1,2-(3-Nonadecanoyloxypropane)-bis(dihydrogen phosphate)]",IC50,[2]; 96 hours drug exposure,> 50 µM
"CCCCCCCCCCCCCCCCCCNC(=O)C(N)COP(=O)(O)O (stereo not shown) [Compound 57, 2-Amino-3-(octadecylamino)-3-oxopropyl dihydrogen phosphate]",inhibition of LPA-induced chloride currents,PSP24 PLGFR,inhibitors of LPA-induced chloride current
same,reversibility of inhibition of LPA-induced chloride currents,PSP24 PLGFR,reversible
"CCCCCCCCCCCCCCCCOCC(COP(=O)(O)O)OP(=O)(O)O (stereo not shown) [Compound 68, 1,2-(3-Hexadecyloxypropane)-bis(dihydrogen phosphate)]",threshold to elicit a response alone,PSP24 PLGFR,~10 nM
same,IC50,[1],29.3 ± 21.7 µM
lysophosphatidic acid [LPA 8:0],Ca2+ response elicited alone,human Edg-2; [7],unable to elicit Ca^2+ responses
same,effect of mixture with LPA 18:1 on Ca2+ responses,human Edg-2; [8],not effected
same,Ca2+ response elicited alone,human Edg-4; [7],unable to elicit Ca^2+ responses
same,effect of mixture with LPA 18:1 on Ca2+ responses,"human Edg-4; mixture of LPA 8:0 and LPA 18:1, stable cells",not effected
same,effect on LPA-elicited Ca2+ responses,human Edg-7,had no effect
same,Ca2+ response elicited alone,human Edg-7; [7],unable to elicit Ca^2+ responses
same,effect of mixture with LPA 18:1 on Ca2+ responses,human Edg-7; [8],not effected
"CCCCCCCCCCCCCCCCCCCCCC(=O)OCC(COP(=O)(O)O)OP(=O)(O)O (stereo not shown) [Compound 92, 1,2-(3-Docosanoyloxypropane)-bis(dihydrogen phosphate)]",inhibition of LPA-induced chloride currents,PSP24 PLGFR,inhibitors of LPA-induced chloride current
same,reversibility of inhibition of LPA-induced chloride currents,PSP24 PLGFR,reversible
"CCCCCCCCCCCCCCNC(=O)C(COP(=O)(OCc1ccccc1)OCc1ccccc1)NC(=O)OC(C)(C)C (stereo not shown) [Compound 51, tert-Butyl N-[1-{([di(benzyloxy)phosphoryl]oxy)methyl}-2-oxo-2-(tetradecylamino)ethyl]carbamate]",IC50,[3],25.4 ± 3.6 µM
same,IC50,[2]; [6],8.1 ± 1.3 µM
same,IC50,"[1]; Homo sapiens, LNCaP",19.9 ± 6.4 µM
same,melting point,,33 to 35 °C
"CCCCCCCCCCCCCCNC(=O)C(N)COP(=O)(O)O (stereo not shown) [Compound 56, 2-Amino-3-oxo-3-(tetradecylamino)propyl dihydrogen phosphate]",inhibition of LPA-induced chloride currents,PSP24 PLGFR,inhibitors of LPA-induced chloride current
same,reversibility of inhibition of LPA-induced chloride currents,PSP24 PLGFR,reversible
